Measurements published in ChEMBL document CHEMBL4619749, “Triazoxins: Novel nucleosides with anti-Giardia activity” (Bioorg Med Chem Lett, 2020).

Columns and labels:
Format in all cases: functional, organism-based
Settings in all cases: Giardia duodenalis
Giardia intestinalis [1] = assay: Antimicrobial activity against Giardia lamblia assemblage A WB C6 ATCC 30957 trophozoites
Giardia intestinalis [2] = assay: Antimicrobial activity against Giardia lamblia assemblage A WB C6 ATCC 30957 cyst
Giardia intestinalis [3] = assay: Antimicrobial activity against Giardia lamblia GS/M assessed as reduction in trophozoites formation

Compound | IC50 (Giardia intestinalis [1]) [µM] | IC50 (Giardia intestinalis [2]) [µM] | EC50 (Giardia intestinalis [3]) [µM]
O=c1ccn([C@@H]2O[C@H](Cn3cc(C#CC#Cc4cn(C[C@H]5O[C@@H](n6ccc(=O)[nH]c6=O)[C@H](O)[C@@H]5O)nn4)nn3)[C@@H](O)[C@H]2O)c(=O)[nH]1 | 47 | > 50 | 
COc1ccc(Cn2cc(C#Cc3cn(C[C@H]4O[C@@H](n5ccc(=O)n(Cc6ccc(OC)cc6)c5=O)[C@@H]5OC(C)(C)O[C@@H]54)nn3)c(=O)n(Cc3ccc(OC)cc3)c2=O)cc1 | 36 | 5 | 
CC1(C)O[C@@H]2[C@H](O1)[C@@H](Cn1cc(CCCCc3cn(C[C@H]4O[C@@H](n5ccc(=O)[nH]c5=O)[C@@H]5OC(C)(C)O[C@@H]54)nn3)nn1)O[C@H]2n1ccc(=O)[nH]c1=O | 47 | > 50 | 
CC1(C)O[C@@H]2[C@H](O1)[C@@H](Cn1cc(C#Cc3c[nH]c(=O)[nH]c3=O)nn1)O[C@H]2n1ccc(=O)[nH]c1=O | 5 | > 50 | 

Continued, values first:

IC50 (Giardia intestinalis [1]) [µM] | IC50 (Giardia intestinalis [2]) [µM] | EC50 (Giardia intestinalis [3]) [µM] | Compound
36 | 20 |  | O=c1ccn([C@@H]2O[C@H](Cn3cc(C#Cc4c[nH]c(=O)[nH]c4=O)nn3)[C@@H](O)[C@H]2O)c(=O)[nH]1
 |  | 5.2 | Cc1ncc([N+](=O)[O-])n1CCO [METRONIDAZOLE]
